The source of these data is ChEMBL document CHEMBL1201862, “PubChem BioAssay data set” (2004).

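All cell lines were grown in 96-well plates and treated with compound for 48 hours. GI50 marks 50% less growth.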 Active and inactive are the calls of the source. No stated cut-off is given here; in the data, active = GI50 up to about 1.1 µM and inactive = higher.

Common to all, as to experiment: NCI-60 cell line screen, 48 h
Experiment [1] relates to K562.
For experiment [2], the system named is Hs-578T.
Experiment [3] has as its system SK-MEL-5.
For experiment [4], the system named is NCI-H460.
Experiment [5] relates to SK-OV-3.
The test system of experiment [6] is HOP-92.
The subject of experiment [7] is SNB-19.
The test system of experiment [8] is OVCAR-4.
The subject of experiment [9] is LOX IMVI.
Experiment [10] concerns NCI-H522.
Experiment [11] has as its system A549.
The test system of experiment [12] is HCC 2998.
Experiment [13] has as its system SF-539.
For experiment [14], the system named is MOLT-4.
The test system of experiment [15] is SR.
Experiment [16] has as its system OVCAR-8.
Experiment [17] relates to SN12C.
Experiment [18] concerns MDA-N.
The subject of experiment [19] is PC-3.

Turning to `N#[N+]c1cc2c(cc1Br)-c1ccccc1C2`, the GI50 is 8.39 µM (inactive) in experiment [1]; > 100 µM (inactive) in [2]; 48.5 µM (inactive) in experiment [3]; > 100 µM (inactive) in experiment [4]; > 100 µM (inactive) in experiment [5]; 11.9 µM (inactive) in experiment [6]. The GI50 in experiment [7] is 71.3 µM (inactive); in experiment [8] it was > 100 µM (inactive); in [9], 91.6 µM (inactive); in experiment [10] it was 58.2 µM (inactive); in experiment [11] it was 95.9 µM (inactive); in [12], 85.5 µM (inactive). The GI50 is > 100 µM (inactive) in experiment [13]; 10.3 µM (inactive) in experiment [14]; 0.413 µM (active) in experiment [15]; 15.6 µM (inactive) in experiment [16]; > 100 µM (inactive) in [17].
On to `N#C/C(=C\c1cc(Br)c(O)c(Br)c1)c1cccnc1`, for which the GI50 is 23.6 µM (inactive) in experiment [1]; > 10 µM (inactive) in experiment [3]; 32.5 µM (inactive) in experiment [4]; > 100 µM (inactive) in experiment [18]; 42.2 µM (inactive) in experiment [5]; 39.1 µM (inactive) in experiment [7]. Besides, the GI50 in experiment [19] was 22 µM (inactive); in [8] it was 33.3 µM (inactive); in experiment [10], 30.6 µM (inactive); in [11] it was 34.2 µM (inactive); in experiment [12], 36.1 µM (inactive); in experiment [13], 26.2 µM (inactive). The GI50 is 23.9 µM (inactive) in [14], 31.3 µM (inactive) in [15], 35.6 µM (inactive) in [16] and 34.7 µM (inactive) in [17].
Consider `CC(=O)OCC1OC(O[C@@H]2C[C@H]3C(C)(C)[C@H](OC(C)=O)CC[C@]3(C)[C@H]3CC[C@]4(C)C(=CC[C@H]4[C@@H](C)C[C@@H](O)[C@H](O)C(C)(C)O)[C@@]32C)C(O)C(O)C1O` (stereo partly drawn), for which the GI50 is 18.3 µM (inactive) in [1]; 17.5 µM (inactive) in experiment [4]; 18.4 µM (inactive) in experiment [18]; 18.5 µM (inactive) in experiment [5]; 17 µM (inactive) in [6]; 15.1 µM (inactive) in [7]. The GI50 in [19] was 16.9 µM (inactive); in experiment [8], 16 µM (inactive); in experiment [9] it was 16.2 µM (inactive); in experiment [10], 1.67 µM (inactive); in experiment [12] it was 20.8 µM (inactive); in [13], 16.4 µM (inactive). Further, the GI50 in experiment [14] is 16.8 µM (inactive); in [15], 16.3 µM (inactive); in [16], 17.3 µM (inactive); in experiment [17], 17.5 µM (inactive).
Take `O=C(c1ccc(Cl)cc1)C(O)c1ccc(Cl)cc1` (stereo not drawn): the GI50 in experiment [1] was 30.8 µM (inactive); in experiment [2], 45.3 µM (inactive); in [3] it was 30.9 µM (inactive); in experiment [4], > 100 µM (inactive); in experiment [6], 30.8 µM (inactive); in experiment [7] it was > 100 µM (inactive). The GI50 was 46.6 µM (inactive) in [19]; 86.3 µM (inactive) in [8]; > 100 µM (inactive) in experiment [9]; 42 µM (inactive) in [10]; 59.7 µM (inactive) in experiment [11]; > 100 µM (inactive) in experiment [12]. The GI50 in experiment [13] was 65.5 µM (inactive); in [14], 24.8 µM (inactive); in experiment [15], 25.4 µM (inactive); in experiment [16], 63.2 µM (inactive); in [17], > 100 µM (inactive).
As for `Nc1nc(Cl)c2ncn(Cc3ccccc3CCl)c2n1`, the GI50 is 4.43 µM (inactive) in [1]; 7.76 µM (inactive) in [2]; 8.55 µM (inactive) in [3]; 5.66 µM (inactive) in experiment [4]; 15.3 µM (inactive) in experiment [5]; 6.52 µM (inactive) in experiment [6]. The GI50 in [7] is 6.05 µM (inactive); in experiment [19], 15 µM (inactive); in experiment [8], 2.48 µM (inactive); in experiment [9], 3.92 µM (inactive); in experiment [10] it was 2.98 µM (inactive); in experiment [11] it was 22 µM (inactive). Further, the GI50 was 2.99 µM (inactive) in experiment [12]; 18 µM (inactive) in [13]; 5.19 µM (inactive) in [14]; 3.34 µM (inactive) in [15]; 3.86 µM (inactive) in experiment [16]; 2.74 µM (inactive) in [17].
Take `Cc1ccc([Se](=C(C(=O)c2ccccc2)C(=O)c2ccccc2)c2ccc(C)cc2)cc1`: the GI50 was 28.8 µM (inactive) in experiment [1]; 22.8 µM (inactive) in experiment [2]; 18.7 µM (inactive) in experiment [3]; 25.5 µM (inactive) in experiment [4]; 43.7 µM (inactive) in experiment [5]; 15 µM (inactive) in experiment [6]. Also, the GI50 in experiment [7] was 27.4 µM (inactive); in [19] it was 23.3 µM (inactive); in experiment [8], 16.4 µM (inactive); in experiment [10], 22.1 µM (inactive); in experiment [11], 25.3 µM (inactive); in experiment [13], 25.6 µM (inactive). Moreover, the GI50 was 16 µM (inactive) in experiment [14], 12.7 µM (inactive) in experiment [15], 26.4 µM (inactive) in experiment [16] and 12.8 µM (inactive) in [17].
On to `COc1ccc2c(CCNS(=O)(=O)c3ccccc3)c(C(C)=O)[nH]c2c1[N+](=O)[O-]`, for which the GI50 in experiment [1] is > 100 µM (inactive); in experiment [4] it was > 100 µM (inactive); in experiment [7], > 100 µM (inactive); in experiment [8], 28.4 µM (inactive); in experiment [9] it was > 100 µM (inactive); in experiment [10] it was > 100 µM (inactive). The GI50 is > 100 µM (inactive) in experiment [11]; > 100 µM (inactive) in [12]; 31.8 µM (inactive) in experiment [13]; > 100 µM (inactive) in experiment [14]; > 100 µM (inactive) in experiment [15]; 65.2 µM (inactive) in [16]. The GI50 in experiment [17] is > 100 µM (inactive).
For `CCOC(=O)c1sc2nc(SC)nc3c2c1NCN3C1CC1`, the GI50 in [2] was 74.5 µM (inactive); in [3], > 100 µM (inactive); in [4] it was > 100 µM (inactive); in experiment [5], > 100 µM (inactive); in experiment [6], > 100 µM (inactive); in [7], > 100 µM (inactive). Moreover, the GI50 in [19] is > 100 µM (inactive); in [8] it was > 100 µM (inactive); in experiment [9] it was > 100 µM (inactive); in experiment [11] it was > 100 µM (inactive); in experiment [12], > 100 µM (inactive); in experiment [16], 36.6 µM (inactive). In addition, the GI50 in experiment [17] was > 100 µM (inactive).
Take `O=C(O)C1CCCCC1C(=O)Nn1cnnc1` (stereo not drawn): the GI50 in [1], in experiment [3], in [18], in experiment [5], in experiment [6] and in experiment [7] was > 100 µM (inactive) in each case. The GI50 in [19], in experiment [8], in experiment [9], in [10], in experiment [11] and in experiment [12] was > 100 µM (inactive) throughout. The GI50 in experiment [13], in experiment [14], in experiment [15], in [16] and in experiment [17] was > 100 µM (inactive) in each case.
